# Values of other authors as cited in PubChem BioAssay AID1259409 (Chemical Carcinogenesis Research Information System (CCRIS), 2018).
# System: rodent chemically induced tumor inhibition, incidence and multiplicity
# Test: CCRIS tumor inhibitor studies
# Conditions: Promoter: NONE; for outcome: Carcinogen: OCHRATOXIN A (303-47-9), Strain/Sex: LEWIS/FEMALE
smiles,measurement,setting,value
O=S(=O)(O)CCS,"tumour outcome (control, treated, inhibition, significance)","Carcinogen: 17BETA-ESTRADIOL, 50-28-2, Dose [Inhibitor]: 0, 0.05% IN DRINKING WATER 5 D/WK BEGINNING 5 D POST CARCINOGEN DOSE (STUDY DURATION: 7.5 MO), Route [Inhibitor]: ORAL, Species: HAMSTER, Strain/Sex: SYRIAN/MALE, Target Tissue: Type of Lesion: KIDNEY: TUMOR, Dose [Carcinogen]: 25 MG PELLET REPLACED WITH A SECOND PELLET AFTER 4 MO","13/13 (100%), 15/19 (79%), 21%, not calculated"
same,"tumour outcome (control, treated, inhibition, significance)","Carcinogen: CYCLOPHOSPHAMIDE, 50-18-0, Dose [Inhibitor]: 5 MG/KG BW IN DRINKING WATER 5/WK FOR 20 MO SIMULTANEOUSLY WITH CARCINOGEN TREATMENT (STUDY DURATION: 20 MO), Route [Inhibitor]: ORAL, Species: RAT, Strain/Sex: SPRAGUE-DAWLEY/MALE, Target Tissue: Type of Lesion: NERVOUS TISSUE: NEOPLASM, Dose [Carcinogen]: 2.5 MG/KG BW IN DRINKING WATER 5/WK FOR 20","14%, 19%, -36%, not calculated"
same,"tumour outcome (control, treated, inhibition, significance)","Carcinogen: CYCLOPHOSPHAMIDE, 50-18-0, Dose [Inhibitor]: 5 MG/KG BW IN DRINKING WATER 5/WK FOR 20 MO SIMULTANEOUSLY WITH CARCINOGEN TREATMENT (STUDY DURATION: 20 MO), Route [Inhibitor]: ORAL, Species: RAT, Strain/Sex: SPRAGUE-DAWLEY/MALE, Target Tissue: Type of Lesion: URINARY BLADDER: TUMOR, Dose [Carcinogen]: 2.5 MG/KG BW IN DRINKING WATER 5/WK FOR 20 MO","30%, 22%, 27%, p>0.003*"
same,"tumour outcome (control, treated, inhibition, significance)","Carcinogen: CYCLOPHOSPHAMIDE, 50-18-0, Dose [Inhibitor]: 5 MG/KG BW IN DRINKING WATER 5/WK FOR DURATION OF STUDY SIMULTANEOUSLY WITH CARCINOGEN TREATMENT (STUDY DURATION: LIFE), Route [Inhibitor]: ORAL, Species: RAT, Strain/Sex: SPRAGUE-DAWLEY/MALE, Target Tissue: Type of Lesion: URINARY BLADDER: PAPILLOMA, CARCINOMA, Dose [Carcinogen]: 2.5 MG/KG BW IN DRINKING WATER 5/WK FOR DURATION OF STUDY","32/100 (32%), 12/50 (24%), 25%, not calculated"
same,"tumour outcome (control, treated, inhibition, significance)","Carcinogen: CYCLOPHOSPHAMIDE, 50-18-0, Dose [Inhibitor]: 15 MG/KG BW IN DRINKING WATER 5/WK FOR 20 MO SIMULTANEOUSLY WITH CARCINOGEN TREATMENT (STUDY DURATION: 20 MO), Route [Inhibitor]: ORAL, Species: RAT, Strain/Sex: SPRAGUE-DAWLEY/MALE, Target Tissue: Type of Lesion: NERVOUS TISSUE: NEOPLASM, Dose [Carcinogen]: 2.5 MG/KG BW IN DRINKING WATER 5/WK FOR 20 MO","14%, 24%, -71%, not calculated"
same,"tumour outcome (control, treated, inhibition, significance)","Carcinogen: CYCLOPHOSPHAMIDE, 50-18-0, Dose [Inhibitor]: 15 MG/KG BW IN DRINKING WATER 5/WK FOR 20 MO SIMULTANEOUSLY WITH CARCINOGEN TREATMENT (STUDY DURATION: 20 MO), Route [Inhibitor]: ORAL, Species: RAT, Strain/Sex: SPRAGUE-DAWLEY/MALE, Target Tissue: Type of Lesion: URINARY BLADDER: TUMOR, Dose [Carcinogen]: 2.5 MG/KG BW IN DRINKING WATER 5/WK FOR 20 MO","30%, 7%, 77%, p>0.003*"
same,"tumour outcome (control, treated, inhibition, significance)","Carcinogen: CYCLOPHOSPHAMIDE, 50-18-0, Dose [Inhibitor]: 15 MG/KG BW IN DRINKING WATER 5/WK FOR DURATION OF STUDY SIMULTANEOUSLY WITH CARCINOGEN TREATMENT (STUDY DURATION: LIFE), Route [Inhibitor]: ORAL, Species: RAT, Strain/Sex: SPRAGUE-DAWLEY/MALE, Target Tissue: Type of Lesion: URINARY BLADDER: PAPILLOMA, CARCINOMA, Dose [Carcinogen]: 2.5 MG/KG BW IN DRINKING WATER 5/WK FOR DURATION OF STUDY","32/100 (32%), 1/50 (2%), 94%, not calculated"
same,"tumour outcome (control, treated, inhibition, significance)","Carcinogen: N-BUTYL-N(4-HYDROXYBUTYL)NITROSAMINE (3817-11-6), Dose [Inhibitor]: 0.05% IN DRINKING WATER FOR 15 WK (STUDY DURATION: 15 WK), Route [Inhibitor]: ORAL, Species: RAT, Strain/Sex: WISTAR/MALE, Target Tissue: Type of Lesion: URINARY BLADDER: PAPILLOMA, Dose [Carcinogen]: 0.025% IN DRINKING WATER FOR 15 WK","38/40 (95%), 18/30 (60%), 37%, p< 0.01"
same,"tumour outcome (control, treated, inhibition, significance)","Carcinogen: N-BUTYL-N(4-HYDROXYBUTYL)NITROSAMINE (3817-11-6), Dose [Inhibitor]: 0.05% IN DRINKING WATER FOR 15 WK (STUDY DURATION: 15 WK), Route [Inhibitor]: ORAL, Species: RAT, Strain/Sex: WISTAR/MALE, Target Tissue: Type of Lesion: URINARY BLADDER: TRANSITIONAL CELL CARCINOMA, Dose [Carcinogen]: 0.025% IN DRINKING WATER FOR 15 WK","4/40 (10%), 1/30 (3%), 70%, not significant"
same,"tumour outcome (control, treated, inhibition, significance)","Carcinogen: N-BUTYL-N-(4-HYDROXYBUTYL)NITROSAMINE, 3817-11-6, Dose [Inhibitor]: 350 MG/KG IN DRINKING WATER 5/WK FOR 39 WK SIMULTANEOUSLY WITH CARCINOGEN TREATMENT FOLLOWED BY OBSERVATION FOR LIFE (ST, Route [Inhibitor]: ORAL, Species: RAT, Strain/Sex: SPRAGUE-DAWLEY/MALE, Target Tissue: Type of Lesion: URINARY BLADDER: PAPILLOMATOUS CARCINOMA, TRANSITIONAL CELL CARCINOMA, Dose [Carcinogen]: 70 MG/KG 2/WK FOR 39 WK SIMULTANEOUSLY WITH AGENT TREATMENT","96%, 91%, 5%, not significant"
same,outcome,"Dose [Inhibitor]: 1 G/L IN DRINKING WATER FOR LIFETIME (STUDY DURATION: LIFETIME), Route [Inhibitor]: GAVAGE, Species: RAT, Target Tissue: Type of Lesion: URINARY BLADDER: TRANSITIONAL CELL CARCINOMA, Dose [Carcinogen]: 0.4 MG/KG BW 3X/WK FOR LIFETIME","0/20 (0%), 0/20 (0%), 0%, not significant"
same,outcome,"Dose [Inhibitor]: 1 G/L IN DRINKING WATER FOR LIFETIME (STUDY DURATION: LIFETIME), Route [Inhibitor]: GAVAGE, Species: RAT, Target Tissue: Type of Lesion: URINARY BLADDER: TRANSITIONAL CELL PAPILLOMA, Dose [Carcinogen]: 0.4 MG/KG BW 3X/WK FOR LIFETIME","0/20 (0%), 0/20 (0%), 0%, not significant"
same,"tumour outcome (control, treated, inhibition, significance)","Carcinogen: OCHRATOXIN A, 303-47-9, Dose [Inhibitor]: 1 G/L IN DRINKING WATER FOR LIFETIME (STUDY DURATION: LIFETIME), Route [Inhibitor]: GAVAGE, Species: RAT, Strain/Sex: DA/FEMALE, Target Tissue: Type of Lesion: URINARY BLADDER: TRANSITIONAL CELL PAPILLOMA, Dose [Carcinogen]: 0.4 MG/KG BW 3X/WK FOR LIFETIME","2/40 (6%), 0/40 (0%), 100%, not significant"
same,"tumour outcome (control, treated, inhibition, significance)","Carcinogen: OCHRATOXIN A, 303-47-9, Dose [Inhibitor]: 1 G/L IN DRINKING WATER FOR LIFETIME (STUDY DURATION: LIFETIME), Route [Inhibitor]: GAVAGE, Species: RAT, Strain/Sex: DA/MALE, Target Tissue: Type of Lesion: URINARY BLADDER: TRANSITIONAL CELL CARCINOMA, Dose [Carcinogen]: 0.4 MG/KG BW 3X/WK FOR LIFETIME","2/20 (11%), 0/20 (0%), 100%, not significant"
